Among the test systems are HOP-62 NSCLC; IGROV1 ovarian; M14 melanoma; MALME-3M melanoma; SR leukemia; A549 NSCLC; NCI-H522 lung; OVCAR-3 ovarian; SNB-75 CNS; U251 CNS.
What all share (test): NCI-60 cell line screen, 48 h

Where “and” joins values, the source holds several entries; their conditions need not be identical. Equal values may be shown once.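 In this assay, cells in 96-well plates receive the compound at five concentrations for 48 hours. Endpoints are linearly interpolated between the surrounding concentrations. The concentration for 50% growth inhibition is given as GI50. At the TGI there is no net growth.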

For `CCOC(=O)c1c(Cl)c2c(n1Cc1ccccc1)-c1oncc1CCC2`, the GI50 in the assay on HOP-62 NSCLC is 4.35 µM; with IGROV1 ovarian it was 4.39 µM; in the assay on M14 melanoma it was 3.78 µM; in the assay on MALME-3M melanoma it was 3.68 µM; with SR leukemia it was 1.8 µM. Besides, the TGI is over 100 µM in the assay on HOP-62 NSCLC; over 100 µM in the assay with IGROV1 ovarian; over 100 µM in the assay with M14 melanoma; over 100 µM in the assay with MALME-3M melanoma; 8.24 µM with SR leukemia.
`CC(C)(C)OC(=O)CC(NC(=O)OCc1ccccc1)NC(=O)OC(C)(C)C` (stereo not given): the GI50 in the assay with A549 NSCLC was 35.2 µg/mL; with M14 melanoma, 56.8 µg/mL; in the assay on MALME-3M melanoma it was 46 µg/mL; in the assay with NCI-H522 lung, 32.9 µg/mL; with OVCAR-3 ovarian, 62.7 µg/mL; in the assay on SNB-75 CNS, 20.8 µg/mL. The GI50 in the assay with SR leukemia is 27.8 µg/mL; in the assay with U251 CNS, 67.5 µg/mL. This compound also came in with a TGI in the assay on SR leukemia of 67.7 µg/mL.
Take `O=c1c(-c2ccccc2)c(SCCCN2CCCCC2)n(-c2ccccc2)c(=S)n1-c1ccccc1`: the TGI was found to be 32.7 µM in the assay with HOP-62 NSCLC; 35.7 µM with IGROV1 ovarian; 37.7 µM with MALME-3M melanoma; 41.1 µM in the assay on NCI-H522 lung; 34.3 µM with OVCAR-3 ovarian; 29.5 µM in the assay with SNB-75 CNS. Further, the TGI in the assay with SR leukemia is 37.3 µM; with U251 CNS, 29.1 µM.
Take `C=CCN1C(=O)NC(=O)/C(=C/c2c3ccccc3cc3ccccc23)C1=O`: the TGI is 58.2 µM with A549 NSCLC; 33.2 µM with HOP-62 NSCLC; over 10 µM in the assay with IGROV1 ovarian; 37.2 µM in the assay on M14 melanoma; 39.3 µM in the assay with MALME-3M melanoma; 44.8 µM with NCI-H522 lung. For the same compound, the TGI in the assay with OVCAR-3 ovarian was determined as 42.3 µM; with SNB-75 CNS, 45 µM; with SR leukemia it was 74 µM; in the assay with U251 CNS, 36.5 µM.
Take `O=c1c2ccccc2nc2n1CCc1c-2[nH]c2ccccc12`: the GI50 in the assay on A549 NSCLC is 14.5 µM. Also, the TGI in the assay on A549 NSCLC was 37.4 µM; with IGROV1 ovarian, 60.6 µM; with M14 melanoma, 32 µM; in the assay with MALME-3M melanoma, 73.7 µM; in the assay on SNB-75 CNS, 40.7 µM; with SR leukemia, over 100 µM. In the assay on U251 CNS, this compound showed a TGI of 28.6 µM.
As for `C/C=C(/CCC1NCCc2c1[nH]c1ccccc21)[Si](C)(C)C` (stereo not given), the TGI in the assay on A549 NSCLC is > 100 µM and 29.7 µM; with HOP-62 NSCLC, > 100 µM and 26.7 µM; in the assay on IGROV1 ovarian, > 100 µM and 21.1 µM; with OVCAR-3 ovarian it was > 100 µM and 13.9 µM; with SNB-75 CNS, > 100 µM and 19.9 µM; in the assay with U251 CNS, > 100 µM and 13.6 µM.
Regarding `NCCCCNOCCCN`, the TGI in the assay with A549 NSCLC, with IGROV1 ovarian, in the assay on M14 melanoma, with MALME-3M melanoma, in the assay with NCI-H522 lung and in the assay on OVCAR-3 ovarian was over 100 µM throughout. The TGI in the assay with SNB-75 CNS, in the assay on SR leukemia and with U251 CNS was over 100 µM each time.
On to `O=c1[nH]c2ccccc2c2oc3ccccc3c12`, for which the TGI in the assay on A549 NSCLC, with HOP-62 NSCLC, in the assay on IGROV1 ovarian, in the assay on M14 melanoma, in the assay with MALME-3M melanoma and with NCI-H522 lung was over 100 µM in each case. In addition, the TGI in the assay with OVCAR-3 ovarian is over 100 µM; in the assay on SNB-75 CNS, 32.6 µM; with SR leukemia it was over 100 µM; with U251 CNS, over 100 µM.
Take `O=[N+]([O-])c1ccc(N/N=C\c2cc(Br)ccc2O)nc1`: the GI50 is 2.84 µM with A549 NSCLC; 1.59 µM with HOP-62 NSCLC; 1.05 µM in the assay on IGROV1 ovarian; 1.22 µM with M14 melanoma; 0.485 µM in the assay with NCI-H522 lung; 0.525 µM in the assay with OVCAR-3 ovarian. Besides, the results for the GI50 with SNB-75 CNS, in the assay with SR leukemia and with U251 CNS were 1.32 µM, 0.463 µM and 0.736 µM, respectively. In addition, the TGI in the assay with A549 NSCLC came to 29.8 µM; with HOP-62 NSCLC, 10.3 µM; in the assay on IGROV1 ovarian, 3.44 µM; with M14 melanoma it was 4.87 µM; in the assay with NCI-H522 lung it was 3.23 µM; in the assay with OVCAR-3 ovarian, 2.3 µM. Also, the TGI in the assay with SNB-75 CNS was 3.85 µM; with SR leukemia it was over 100 µM; in the assay with U251 CNS, 3.24 µM.
On to `NC(Cc1cc(I)c(Oc2ccc(O)c(I)c2)c(I)c1)C(=O)O` (stereo not given), for which the TGI with A549 NSCLC, with HOP-62 NSCLC, with IGROV1 ovarian, with M14 melanoma, in the assay with MALME-3M melanoma and in the assay on NCI-H522 lung was over 100 µM in each case. The TGI in the assay with OVCAR-3 ovarian, in the assay on SNB-75 CNS and in the assay on U251 CNS was over 100 µM in each case.
Turning to `O=S1(=O)C(=C(c2ccccc2)c2ccccc2)S(=O)(=O)c2ccccc21`, the TGI in the assay with A549 NSCLC is over 100 µM; in the assay with HOP-62 NSCLC, 46.8 µM; in the assay with IGROV1 ovarian, over 100 µM; in the assay on MALME-3M melanoma it was over 100 µM; in the assay on NCI-H522 lung, over 100 µM; with OVCAR-3 ovarian, over 100 µM. The TGI is 44.4 µM with SNB-75 CNS and over 100 µM with U251 CNS.

Values taken from PubChem BioAssay (NCI).
